Measurements published in article PMC6760779, “Unraveling the functional role of the orphan solute carrier, SLC22A24 in the transport of steroid conjugates through metabolomic and genome-wide association studies” (PLoS Genetics, 2019).
Counter-ions that a name gives are not always drawn. Like-named read-outs stand apart in the source and are kept apart here.

Assays:
[1] = target: T1, SLC22A24 (Homo sapiens, UniProt Q8N4F4); assay: cell-based
T1 sequence (Q8N4F4 1-552): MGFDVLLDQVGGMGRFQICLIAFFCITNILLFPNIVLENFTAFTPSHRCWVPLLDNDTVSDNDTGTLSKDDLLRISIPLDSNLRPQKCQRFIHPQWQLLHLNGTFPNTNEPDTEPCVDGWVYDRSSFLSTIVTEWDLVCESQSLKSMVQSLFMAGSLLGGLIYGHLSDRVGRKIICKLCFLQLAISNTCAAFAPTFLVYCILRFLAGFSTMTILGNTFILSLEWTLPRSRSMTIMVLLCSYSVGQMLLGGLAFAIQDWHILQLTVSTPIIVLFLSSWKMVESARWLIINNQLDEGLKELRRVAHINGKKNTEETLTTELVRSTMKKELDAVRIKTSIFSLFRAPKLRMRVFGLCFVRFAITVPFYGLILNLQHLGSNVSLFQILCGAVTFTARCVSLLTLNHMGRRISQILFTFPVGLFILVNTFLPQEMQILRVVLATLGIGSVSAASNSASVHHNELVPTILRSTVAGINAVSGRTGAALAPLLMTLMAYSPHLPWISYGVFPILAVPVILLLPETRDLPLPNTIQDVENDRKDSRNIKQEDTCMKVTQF

[2] = substrate: C[C@]12CC[C@@H]3c4ccc(OS(=O)(=O)O)cc4CC[C@H]3[C@@H]1CCC2=O; assay: cells, lysate or membranes
[3] = substrate: C[C@H](CCC(=O)NCC(=O)O)[C@H]1CC[C@H]2[C@@H]3[C@H](O)C[C@@H]4C[C@H](O)CC[C@]4(C)[C@H]3C[C@H](O)[C@]12C; assay: cells, lysate or membranes; format: cell-based, Homo sapiens
[4] = substrate: C[C@]12CC[C@@H]3c4ccc(O)cc4CC[C@H]3[C@@H]1CC[C@@H]2O[C@@H]1O[C@H](C(=O)O)[C@@H](O)[C@H](O)[C@H]1O; assay: cells, lysate or membranes; format: cell-based, Homo sapiens

C[C@H](CCC(=O)O)[C@H]1CC[C@H]2[C@@H]3[C@H](O)C[C@@H]4C[C@H](O)CC[C@]4(C)[C@H]3CC[C@]12C [Chenodeoxycholic acid]
IC50 ([1]; read-out: IC50 [μM ± SD]): 2.6 ± 1 µM

O=C(O)CSc1nnc(Br)n1-c1ccc(C2CC2)c2ccccc12 [Lesinurad]
IC50 ([1]; read-out: IC50 [μM ± SD]): 13 ± 6.1 µM

CC(=O)[C@H]1CC[C@H]2[C@@H]3CC=C4C[C@@H](OS(=O)(=O)O)CC[C@]4(C)[C@H]3CC[C@]12C [Pregnenolone sulfate]
IC50 [1]: 1.4 ± 0.1 µM

CC(=O)[C@H]1CC[C@H]2[C@@H]3CCC4=CC(=O)CC[C@]4(C)[C@H]3CC[C@]12C [Progesterone]
IC50 [1]: 7.4 ± 3 µM

CN(CCOc1ccc(CC2SC(=O)NC2=O)cc1)c1ccccn1 (stereo not drawn) [Rosiglitazone]
IC50 ([1]; read-out: IC50 [μM ± SD]): 3.3 ± 1.4 µM

C[C@H](CCC(=O)O)[C@H]1CC[C@H]2[C@@H]3[C@@H](O)C[C@@H]4C[C@H](O)CC[C@]4(C)[C@H]3CC[C@]12C [Ursodeoxycholic acid]
IC50 ([1]; read-out: IC50 [μM ± SD]): 7.6 ± 1.2 µM

B1: SLC22A24 (Homo sapiens) (protein)
chain: T1 sequence (Q8N4F4 1-552)
Km [2]: 8.6 ± 0.3 µM
Km [3]: 33.4 ± 2.5 µM
Km [4]: 17.5 ± 0.2 µM
